Reference: PMC12114840, “Exploring the Anticancer Properties of 1,2,3-Triazole-Substituted Andrographolide Derivatives” (Pharmaceuticals, 2025)
Each block holds one compound with its values, some of them ahead of it.

Tests used:
[1] = tested on: PANC-1 cells (pancreatic ductal adenocarcinoma); assay: Sulforhodamine B (SRB) antiproliferative assay, PANC-1; assay type: cell-based, human; conditions: Homo sapiens; PANC-1, 48 h, SRB; mean ± SEM of four to six independent experiments
Procedure: (§1) The antiproliferative properties of andrographolide and all prepared derivatives (2–26) were evaluated against a panel of different cancer cell lines, including human pancreatic ductal adenocarcinoma (PANC-1), colorectal adenocarcinoma (HCT116), melanoma (A375), breast adenocarcinoma (MCF-7) and a non-tumorigenic colon (CCD-18Co) cell line using the sulforhodamine B assay.
(§2) Human breast adenocarcinoma MCF-7, pancreatic ductal adenocarcinoma PANC-1, melanoma A375, and non-tumorigenic colon CCD-18Co cell lines were purchased from ATCC (Rockville, MD, USA). Human colorectal adenocarcinoma HCT116 cells were kindly provided by B. Vogelstein (The Johns Hopkins Kimmel Cancer Center, Baltimore, MD, USA). Tumor cells were routinely cultured in RPMI-1640 medium with UltraGlutamine from Biowest (VWR, Carnaxide, Portugal) supplemented with 10% fetal bovine serum (FBS) from Biowest (VWR, Carnaxide, Portugal), except for the PANC-1 cells, which were grown in DMEM (4.5 g/L glucose) with stable L-glutamine and sodium pyruvate and supplemented with 10% FBS. The non-tumorigenic CCD-18Co cells were cultured in EMEM (Lonza, VWR, Carnaxide, Portugal), supplemented with 10% FBS. All cells were incubated at 37 °C in a humidified atmosphere of 5% CO2. Routine mycoplasma testing was performed using the MycoAlert™ PLUS mycoplasma detection kit (Lonza).
(§3) For the evaluation of the compound effect on cell proliferation, human cell lines were seeded in 96-well plates at a density of 5.0 × 10^3 (HCT116, MCF-7, PANC-1, A375, and CCD-18Co) cells per well, for 24 h. Cells were then treated with serial dilutions of the compound (ranging from 0.63 to 30 µM), for an additional 48 h incubation period. The growth inhibitory effects were assessed by SRB assay, as described in [58], and the half-maximal inhibitory concentration (IC50 values) were determined for each cell line using the GraphPad Prism software version 7.0 (La Jolla, CA, USA). Culture medium containing a maximum of 0.05% dimethyl sulfoxide (DMSO) was used as negative control.

[2] = tested on: HCT116 cells (colorectal adenocarcinoma); assay: Sulforhodamine B (SRB) antiproliferative assay, HCT116; assay type: cell-based; conditions: Homo sapiens, HCT-116, HCT116, 48 h, mean ± SEM of four to six independent experiments
Procedure: as §1, §2, §3

A375 cells (melanoma) = assay: Sulforhodamine B (SRB) antiproliferative assay, A375; assay type: cell-based; conditions: Homo sapiens, A-375, A375, 48 h, mean ± SEM of four to six independent experiments
Procedure: as §1, §2, §3

[3] = tested on: MCF-7 cells (breast adenocarcinoma); assay: Sulforhodamine B (SRB) antiproliferative assay, MCF-7; assay type: cell-based; conditions: Homo sapiens, MCF7, MCF-7, 48 h, mean ± SEM of four to six independent experiments
Procedure: as §1, §2, §3

[4] = tested on: CCD-18Co cells (non-tumorigenic colon); assay: Sulforhodamine B (SRB) antiproliferative assay, CCD-18Co; assay type: cell-based; conditions: Homo sapiens, CCD-18Co non-tumorigenic, 48 h, mean ± SEM of four to six independent experiments
Procedure: as §1, §2, §3

SMILES: C=C1CC[C@@H]2[C@](C)(COC(C)=O)[C@H](OC(C)=O)CC[C@@]2(C)[C@@H]1C[C@H](C1=CCOC1=O)n1cc(C(C)(C)O)nn1 [Compound 5, (12R)-4-(2-methyl-2-ol)-1,2,3-triazole-3,19-diacetoxy-14-deoxy-andrographolide]
IC50 [1]: 8.5 ± 1 µM
IC50 [2]: 8.4 ± 1.1 µM
IC50 (A375 cells (melanoma)): 7.7 ± 1.3 µM
IC50 [3]: 25 ± 3 µM
IC50 [4]: 7.1 ± 2.6 µM

IC50 [1]: 3.1 ± 0.8 µM
IC50 [2]: 4.1 ± 0.2 µM
IC50 (A375 cells (melanoma)): 7.1 ± 0.1 µM
IC50 [3]: 7.9 ± 1.5 µM
SMILES: C=C1CC[C@@H]2[C@](C)(COC(C)=O)[C@H](OC(C)=O)CC[C@@]2(C)[C@@H]1C[C@@H](C1=CCOC1=O)n1cc(-c2ccc(OC(F)(F)F)cc2)nn1 [Compound 19]
IC50 [4]: 6.6 ± 0.9 µM

SMILES: C=C1CC[C@@H]2[C@](C)(COC(C)=O)[C@H](OC(C)=O)CC[C@@]2(C)[C@@H]1C[C@H](C1=CCOC1=O)n1cc(-c2ccc(-c3ccccc3)cc2)nn1 [Compound 20]
IC50 [1]: 3 ± 1.1 µM
IC50 [2]: 1.4 ± 0.3 µM
IC50 (A375 cells (melanoma)): 3.3 ± 1.3 µM
IC50 [3]: 28 ± 2 µM
IC50 [4]: 3.5 ± 0.3 µM

SMILES: C=C1CC[C@@H]2[C@](C)(COC(C)=O)[C@H](OC(C)=O)CC[C@@]2(C)[C@@H]1C[C@@H](C1=CCOC1=O)n1cc(-c2ccc(C#N)cc2)nn1 [Compound 15, (12S)-4-benzonitrile-1,2,3-triazole-3,19-diacetoxy-14-deoxy-andrographolide]
IC50 [1]: 3.3 ± 0.9 µM
IC50 [2]: 1.3 ± 0.1 µM
IC50 (A375 cells (melanoma)): 1.2 ± 0.2 µM
IC50 [3]: 5.6 ± 0.2 µM
IC50 [4]: 6.2 ± 1.2 µM

SMILES: C=C1CC[C@@H]2[C@](C)(COC(C)=O)[C@H](OC(C)=O)CC[C@@]2(C)[C@@H]1C[C@H](C1=CCOC1=O)n1cc(-c2ccncc2)nn1 [Compound 22, (12R)-4-(4-pyridine)-1,2,3-triazole-3,19-diacetoxy-14-deoxy-andrographolide]
IC50 [1]: 5 ± 0.4 µM
IC50 [2]: 1.6 ± 0.3 µM
IC50 (A375 cells (melanoma)): 1.3 ± 0.2 µM
IC50 [3]: 5.9 ± 0.1 µM
IC50 [4]: 3.2 ± 0.9 µM
